Activity calls are given as the source filed them.
Legend:
[1] = molecular target: T1, Caspase-6 (Homo sapiens, UniProt P55212); experiment: inhibition of CASP6 peptide cleavage – biochemical, VEID-R110 fluorescence, cherry-pick, dose response (AID 720632)
T1 sequence (P55212 whole entry): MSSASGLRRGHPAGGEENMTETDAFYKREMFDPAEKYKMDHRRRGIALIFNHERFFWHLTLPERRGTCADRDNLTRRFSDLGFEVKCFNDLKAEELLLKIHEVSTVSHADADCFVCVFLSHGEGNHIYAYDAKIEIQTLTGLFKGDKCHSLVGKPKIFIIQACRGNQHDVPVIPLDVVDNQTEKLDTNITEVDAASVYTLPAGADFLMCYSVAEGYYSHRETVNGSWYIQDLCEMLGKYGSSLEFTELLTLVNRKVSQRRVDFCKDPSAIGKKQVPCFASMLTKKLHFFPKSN

[2] = P. falciparum Dd2 growth inhibitors, dose response, SYBR Green, cherry-picked samples (AID 1159567); type: functional, cell-based
[3] = toxicity to human hepatoma HepG2 cells – cell-based, cherry-picked samples, cytotoxicity control, dose response (AID 1159577); type: functional
[4] = molecular target: T2, Cytochrome P450 1A2 (Homo sapiens, UniProt P05177);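 further: PubChem cytochrome P450 panel assay, CYP1A2 panel member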
T2 sequence (P05177 whole entry): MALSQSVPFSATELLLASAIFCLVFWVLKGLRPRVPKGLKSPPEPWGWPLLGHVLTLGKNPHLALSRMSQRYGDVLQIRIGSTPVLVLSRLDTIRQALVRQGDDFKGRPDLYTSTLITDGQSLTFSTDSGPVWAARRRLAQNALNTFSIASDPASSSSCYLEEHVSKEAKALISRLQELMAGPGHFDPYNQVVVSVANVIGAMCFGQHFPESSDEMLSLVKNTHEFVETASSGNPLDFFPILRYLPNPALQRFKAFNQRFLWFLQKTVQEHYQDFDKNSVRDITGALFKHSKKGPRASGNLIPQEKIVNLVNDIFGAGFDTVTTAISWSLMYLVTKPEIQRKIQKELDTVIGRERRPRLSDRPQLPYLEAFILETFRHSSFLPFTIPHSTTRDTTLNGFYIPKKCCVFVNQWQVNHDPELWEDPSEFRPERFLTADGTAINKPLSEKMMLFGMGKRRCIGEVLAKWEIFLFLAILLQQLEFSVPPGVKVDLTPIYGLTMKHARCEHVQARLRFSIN

[5] = IC50 of Artemis nuclease activity blockers – biochemical, fluorescence intensity, dose response (AID 720701); type: functional;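 further: Artemis endonuclease enzyme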
[6] = molecular target: Cytochrome P450 2C19 (Homo sapiens, UniProt P33261); experiment: Cytochrome panel assay with activity outcomes. Panel member name: p450-cyp2c19 Compounds with AC50 equal or less than 10 uM are considered active; type: functional; settings: read-out: AC50
[7] = HIV-1 Vif–A3G interaction blockers – biochemical, TR-FRET, GST-Vif 1-94, biotin-A3G peptide, dose response retest, primary screen (AID 1117319); type: functional;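 further: TR-FRET signal of purified GST-Vif binding a biotinylated A3G peptide; inhibitors lower the FRET signal by blocking Vif and A3G binding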
[8] = molecular target: T3, Coagulation factor XII (Homo sapiens, UniProt P00748); type: functional;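 further: activated factor XIIa alpha cleaving a fluorogenic AMC peptide substrate; inhibitor potency from loss of enzyme activity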
T3 sequence (P00748 whole entry): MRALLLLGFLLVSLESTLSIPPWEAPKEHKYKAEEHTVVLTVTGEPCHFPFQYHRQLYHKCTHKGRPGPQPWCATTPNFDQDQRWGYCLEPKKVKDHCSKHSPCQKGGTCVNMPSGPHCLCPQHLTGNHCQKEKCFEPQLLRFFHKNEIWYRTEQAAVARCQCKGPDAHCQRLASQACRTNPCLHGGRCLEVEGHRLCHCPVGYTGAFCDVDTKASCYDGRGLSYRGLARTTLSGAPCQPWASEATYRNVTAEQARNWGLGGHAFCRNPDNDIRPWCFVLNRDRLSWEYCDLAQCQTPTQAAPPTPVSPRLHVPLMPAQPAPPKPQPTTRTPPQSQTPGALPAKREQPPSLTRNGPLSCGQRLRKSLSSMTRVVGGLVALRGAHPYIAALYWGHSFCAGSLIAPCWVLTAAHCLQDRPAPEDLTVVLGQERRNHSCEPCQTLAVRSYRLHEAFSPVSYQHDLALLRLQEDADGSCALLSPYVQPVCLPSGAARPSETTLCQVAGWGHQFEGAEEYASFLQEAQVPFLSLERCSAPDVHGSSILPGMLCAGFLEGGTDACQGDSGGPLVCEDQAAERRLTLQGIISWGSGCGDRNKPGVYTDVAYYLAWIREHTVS

[9] = viability loss in Vero cells – cytotoxicity control for Vif-APOBEC3G degradation inhibitor project, dose response (AID 1117358); type: functional; settings: Vero
[10] = toxicity toward HepG2 liver cells – cell-based, plate reader, cherry-pick, antagonist series, cytotoxicity control, dose response (AID 743416); type: functional
[11] = A549 cell cytotoxicity, dose response, cytotoxicity control, plate reader, cherry-pick, antagonist series (AID 743412); type: functional, cell-based
[12] = blockade of melanocortin 4 receptor signaling – cell-based, plate reader, cherry pick, counter-screen for LGR2 antagonist project, dose response (AID 743444); type: functional;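 further: transfected HEK 293 cells stimulated with alpha-MSH peptide; potency of inhibitors of the alpha-MSH evoked signal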
[13] = viability loss in HEK293 cells – cell-based, plate reader, cherry-picked samples, cytotoxicity control, dose response (AID 743446); type: functional
[14] = cells; type: functional, cell-based; settings: HEK-CNG
[15] = non-specific 3'UTR reporter inhibition in Clone20-Shn3RL – cell-based, Renilla luciferase, cherry-picked, counter-screen for Shn3 inhibitor project, dose response (AID 624133); type: functional
[16] = molecular target: T4, Galanin receptor type 3 (Homo sapiens, UniProt O60755); experiment: Fluorescence-based cell-based primary high throughput dose response assay to identify antagonists of the Galanin Receptor 3 (GalR3).; type: functional
T4 sequence (O60755 whole entry): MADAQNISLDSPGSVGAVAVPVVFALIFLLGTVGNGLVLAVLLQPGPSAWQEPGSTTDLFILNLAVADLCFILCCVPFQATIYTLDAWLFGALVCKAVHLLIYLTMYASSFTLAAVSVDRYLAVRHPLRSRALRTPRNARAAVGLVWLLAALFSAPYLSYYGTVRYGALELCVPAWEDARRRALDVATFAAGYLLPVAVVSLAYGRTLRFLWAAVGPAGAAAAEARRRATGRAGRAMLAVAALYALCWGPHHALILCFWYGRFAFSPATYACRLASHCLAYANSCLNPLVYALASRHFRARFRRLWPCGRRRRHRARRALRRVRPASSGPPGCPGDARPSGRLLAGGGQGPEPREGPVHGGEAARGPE

[17] = molecular target: T5, COUP transcription factor 2 (Homo sapiens, UniProt P24468); experiment: Luminescence-based cell-based high throughput dose response assay to identify inhibitors of COUP-TFII (NR2F2).; type: functional;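 further: HEK293 cells transiently cotransfected with COUP-TFII expression vector and reporter; luciferase reporter luminescence driven by COUP-TFII from the pX2-168 reporter plasmid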
T5 sequence (P24468 whole entry): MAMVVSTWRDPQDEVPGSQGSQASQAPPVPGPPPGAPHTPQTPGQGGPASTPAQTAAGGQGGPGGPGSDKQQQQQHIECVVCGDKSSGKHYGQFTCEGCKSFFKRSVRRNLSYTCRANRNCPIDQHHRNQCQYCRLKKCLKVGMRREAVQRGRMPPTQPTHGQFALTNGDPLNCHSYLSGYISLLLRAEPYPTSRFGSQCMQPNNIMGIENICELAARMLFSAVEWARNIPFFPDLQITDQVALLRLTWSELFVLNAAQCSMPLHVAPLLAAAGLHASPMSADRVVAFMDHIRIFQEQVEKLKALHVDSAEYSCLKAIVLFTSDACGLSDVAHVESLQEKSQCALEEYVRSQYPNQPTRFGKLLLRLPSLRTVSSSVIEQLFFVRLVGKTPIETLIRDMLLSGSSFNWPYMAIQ

[18] = reduction of Shn3 3'UTR-driven luciferase in osteoblasts – cell-based, Clone20 osteoblasts, firefly luciferase, cherry-picked, dose response (AID 624132); type: functional;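 further: firefly luciferase luminescence from reporter carrying the Shn3 3'UTR in osteoblasts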
[19] = loss of viability in HepG2 cells – cell-based, CellTiter-Glo, cherry-picked, cytotoxicity control for Shn3 inhibitor project, dose response (AID 624134); type: functional
[20] = Dd2 malaria parasite growth inhibition potency – SYBR Green, dry powder samples, dose response (AID 1159566); type: functional, cell-based;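 further: potency for growth inhibition with lower SYBR green DNA signal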
[21] = growth inhibition of yeast DHODH-expressing 3D7 parasites – SYBR Green, dry powder samples, dose response (AID 1159570); type: functional, cell-based;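 further: parasite growth measured after 72 hours of compound exposure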
[22] = growth inhibition of PfATP4-mutant resistant parasites – NITD609-resistant line, SYBR Green, dry powder, dose response (AID 1159571); type: functional, cell-based;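 further: parasites synchronized at ring stage by sorbitol before testing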
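Wherever EC50 is given: target is galanin receptor GalR3 read with a cAMP biosensor in HEK293 cells.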

Chain of Cytochrome P450 2C19 (P33261 whole entry): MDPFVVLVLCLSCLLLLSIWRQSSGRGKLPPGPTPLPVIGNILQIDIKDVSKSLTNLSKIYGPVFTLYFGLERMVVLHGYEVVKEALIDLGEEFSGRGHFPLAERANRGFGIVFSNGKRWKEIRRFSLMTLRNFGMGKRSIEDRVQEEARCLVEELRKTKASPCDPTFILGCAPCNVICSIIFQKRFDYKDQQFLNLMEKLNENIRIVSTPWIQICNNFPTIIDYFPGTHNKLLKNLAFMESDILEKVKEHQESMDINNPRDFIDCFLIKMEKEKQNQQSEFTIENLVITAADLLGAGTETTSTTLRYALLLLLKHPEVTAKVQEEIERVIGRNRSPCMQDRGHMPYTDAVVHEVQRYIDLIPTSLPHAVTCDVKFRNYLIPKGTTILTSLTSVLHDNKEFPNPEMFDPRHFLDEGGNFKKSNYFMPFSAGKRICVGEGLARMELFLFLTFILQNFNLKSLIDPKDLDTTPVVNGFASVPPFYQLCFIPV

In the case of O=C1NC(Cc2ccc(O)cc2)c2nc3ccc(Br)cc3c(=O)n2-c2ncccc21 (stereo not drawn), the AC50 [1] is reported as 35.4 µM (active).

With N#C[C@@H]1[C@H](c2ccc(C#CC3CCCCC3)cc2)[C@@H](CO)N1C(=O)Nc1ccc(F)cc1 the AC50 [2] was 7.33 µM (active) and the AC50 [3] was 14 µM (active).

For O=C(N/N=C\c1ccc(-c2ccccc2[N+](=O)[O-])o1)C1COc2cc3ccccc3cc2O1 (stereo not drawn), the AC50 [4] was 3.55 µM (inconclusive), the IC50 [5] was > 20 µM (inactive) and the AC50 [6] was 1.12 µM (inconclusive).

In the case of O=C1CN(C(=O)COC(=O)c2oc3ccccc3c2COc2ccccc2)c2ccccc2N1, the IC50 [7] is reported as > 100 µM (active) and the IC50 [8] is reported as > 50 µM (inactive).

In the case of CCc1nnc(NC(=O)c2ccc(S(=O)(=O)N(CC(C)C)CC(C)C)cc2)o1, the CC50 [9] is reported as > 40 µM (active).

With C[C@@H]1CN([C@H](C)CO)C(=O)Cc2cc(NC(=O)Nc3ccc(F)cc3)ccc2O[C@@H]1CN(C)CC1CCCCC1 the AC50 [10] was 14.6 µM (active), the AC50 [11] was 15 µM (active) and the AC50 [12] was 56.6 µM (active). For the same compound, the AC50 [13] was 16.2 µM (active).

In the case of CC(=O)c1c(C)[nH]c(C(=O)COc2cc(C)ccc2C(C)C)c1C, the EC50 [14] is reported as > 29.9 µM (inactive), the AC50 [15] is reported as 8.41 µM (active) and the IC50 [16] is reported as 1.24 µM (active). For the same compound, the IC50 [17] was 5.74 µM (active), the AC50 [18] was 1.25 µM (active) and the AC50 [19] was 3.12 µM (active).

With COc1ccc2c3c(n(C)c2c1)[C@@H](CO)N(C(=O)C1CCC1)CC31CN(C(=O)Nc2cccc(F)c2)C1 the AC50 [20] was 0.779 µM (active), the AC50 [2] was 2.35 µM (active) and the AC50 [21] was 0.515 µM (active). The AC50 [22] was 0.535 µM (active).

Source: ChEMBL document CHEMBL1201862, “PubChem BioAssay data set” (2004)
